The text below walks through data of patent US20180368393A1, “PRE- AND POST-STORAGE STRESS RESPONSE CONDITIONING” (CPSI HOLDINGS LLC, priority 2017, published 2018).

Assay [1] deals with human smooth muscle cells. Description: Human smooth muscle cell monolayer survival and repopulation following cryopreservation (Calcein-AM assay). In kind it is cell-based. The protocol: (§1) The device was used to thaw the samples, which were frozen in situ in monolayers in standard 96-well tissue culture plates. Samples were thawed from less than −170° C. to about 4° C. in the 96-well plate format in about 5 mins in a dry clean (“sterile”) environment.
The study described in example 3.1 focuses on the collection of cell survival data and the impact of post-thaw conditioning on human smooth muscle cells (SMCs). Specific activities included application of the high throughput monolayer sample cryopreservation protocol and collection of data (survival and cell death) from samples frozen using 6 unique cryopreservation solutions (U5, U10, U20, U5G10, U10G10, DP6) and 6 unique modulators (resveratrol, salubrinal, caspase inhibitors (IV, 8, 9) and NAC). Survival was determined at 24 hours post-thaw to allow for the manifestation of any delayed onset cell death pathways to be executed. Further, cell recovery was included to evaluate the long term potency and repopulation potential of the various samples.
A series of experiments was conducted to evaluate the performance of several solutions (U5, U10, U20, U5G10, U10G10 and DP6) as well as the impact of pre-freeze (PF) and post-warming (PW) conditioning with the apoptotic inhibitors Caspase 8, Caspase 9 and Caspase IV inhibitors. Cell samples were processed using the monolayer CP protocol and analyzed following 24 hours to 7 days post thaw for survival and recovery. These experiments were conducted to evaluate the impact of molecular modulators (inhibitors) during pre-freeze or post-thaw recovery on cell survival when added to the media 1 hour prior to or 24 hour following cryopreservation. […] To this end, samples were probed with Calcein-AM, incubated for 30 mins in the dark and then imaged using a Zeiss Axiovert 200 fluorescence microscope and Axiovision software. Images were taken at 24 hours to 7 days post-thaw to allow for assessment of solution and post-thaw conditioning agent performance.
As in previous experiments, the 24 hour time point was used for initial survival assessment, as this time point allows for the manifestation of molecular based cell stress-induced death. This provides a more accurate measure of survival than 0 or 1 hour post-thaw assessment, as is typically used. The 3 day time point was selected to assess re-population potential of any surviving cells as an indicator of long term potency.
For smooth muscle cell pre-freeze (PF) conditioning studies, 1 hour prior to CP addition, culture media was decanted and 100 μL of fresh media supplemented with caspase 8, 9, or IV was added to each respective well. Samples were then incubated at 37° C. for 1 hour, followed by media removal and addition of 100 μL of CP solution to samples followed by cryopreservation as described above. Following preservation, samples were thawed, diluted, and placed into culture. Following 24 hours recovery, cell viability was assessed.
For smooth muscle cell post-warming (PW) conditioning studies, following thawing and cryopreservation, CP solution was removed or diluted with culture media supplemented with caspase 8, 9, or IV. FIG. 18 illustrates the impact of apoptotic inhibition post-freeze conditioning on human smooth muscle cell survival 1 day following cryopreservation with and without reduced CPA.
For P/P conditioning studies, 1 hour prior to CP addition, culture media was decanted and 100 μL of fresh media supplement with caspase 8, 9, or IV was added to each respective well.

In a further assay the test system is hamster beta islet cells. Description: Hamster beta islet cell survival following cryopreservation (AlamarBlue assay). It counts as cell-based. Conditions: PW conditioning 24 hours vs non-modulated samples; 10 mM NAC recovery media. The method, then:
The studies described in example 8 focus on the collection of cell survival data and the impact of post-thaw conditioning on hamster beta islet cells. Specific activities included standard cryopreservation protocol and collection of data (survival and cell death) from samples frozen using 3 unique cryopreservation solutions (media with 0, 5% DMSO and 5% DMSO+NAC) and oxidative stress PW modulation (NAC). Survival was determined at 24 hours post-thaw to allow for the manifestation of any delayed onset cell death pathways to be executed. Further, cell recovery was included to evaluate the long term potency and repopulation potential of the various samples.
Cell samples were processed according to standard controlled rate suspension freeze protocols and analyzed following 24 hours to 3 days post thaw for survival and recovery. […] To this end, samples were probed with AlamarBlue, incubated for 60 mins in the dark and then assessed using a Tecan micro plate reader. […]
FIG. 33 illustrates the results of an assessment of beta islet cell survival following cryopreservation in media based solutions with various CPA concentrations. […] Following thawing, samples were placed into culture and assessed for viability at 1 day (24 hours) post-thaw using the AlamarBlue assay. […]

For assay [2], the system named is endothelial and smooth muscle cells. Description: Summary of Examples 2-3: post-thaw survival of endothelial and smooth muscle cells (Calcein-AM assay). In kind it is cell-based, human. The protocol: For pre-freeze (PF), post-warming (PW) and pre/post (P/P) conditioning studies, molecular modulation agents targeting inhibition of apoptosis (Caspase inhibitor IV, 8, 9 and a combination of Caspases 8 and 9), reduction of free-radical damage (resveratrol and NAC), and activation of the unfolded protein response (salubrinal) were employed as supplements in the media 1 hour prior to freezing (pre-freeze condition) or for 1 day following thawing and CPA removal from frozen samples (post-warming condition).
as §1
The P/P regime was followed by PW using Caspase 8 inhibition or NAC inhibition.

In the case of `CC(=O)N[C@@H](CS)C(=O)O` [NAC, n-acetyl cysteine], the “repopulation / recovery at 3 days post-thaw” value in assay [1] (P/P conditioning with oxidative stress modulators) is “day 3 recovery reached a monolayer similar to non-treated controls”. Further, the “day 1 cell survival” value in assay [1] (P/P conditioning, vs non-conditioned samples) is given as “slight to no improvement in cell survival”; in assay [1] (PW conditioning, vs non-treated matched samples), “improvement in cell survival”. In assay [1] (PW conditioning in combination with the other solutions), the “post-thaw cell survival or recovery (overall)” value is on record as “Broader solution benefit”. In addition, the “cell recovery / repopulation, day 3” value in assay [1] (PW conditioning with oxidative stress modulators) was “improved cell recovery”. In the assay with hamster beta islet cells, the post-thaw survival entry is “improvement in post-thaw survival”. The “day 1 post-thaw cell survival and cell recovery” value in assay [2] (PF, PW and P/P conditioning, Unisol based solutions) is reported as “Improvements in survival”. The “increase in cell survival over non-treated samples” value in assay [2] (PW conditioning) is on record as about 50%.
